Columns and labels:
[1] = target: T1, human B1R receptor (hB1R) (Homo sapiens, UniProt P46663); assay: Functional investigation on the bradykinin receptor 1 (B1R), FLIPR Ca2+ assay, hB1R cells; type: cell-based
T1 construct: expressed in transfected cells; host or cells: CHO K1 cells
T1 sequence (P46663 1-353): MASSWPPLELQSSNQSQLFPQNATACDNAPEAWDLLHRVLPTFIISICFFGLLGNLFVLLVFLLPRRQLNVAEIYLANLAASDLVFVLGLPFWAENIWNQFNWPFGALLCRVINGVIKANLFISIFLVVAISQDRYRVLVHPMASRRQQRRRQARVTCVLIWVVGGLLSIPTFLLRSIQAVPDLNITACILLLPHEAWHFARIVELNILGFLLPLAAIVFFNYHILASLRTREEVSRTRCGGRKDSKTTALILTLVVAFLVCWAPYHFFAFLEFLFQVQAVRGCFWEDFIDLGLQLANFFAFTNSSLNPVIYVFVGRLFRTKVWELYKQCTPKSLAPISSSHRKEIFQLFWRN
How it was run: (§1)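 Stably transfected CHO K1 cells expressing human or rat B1R were loaded with Fluo-4, and Ca2+ fluorescence was read on a FLIPR. Compound (10 μM) was added first to measure activation. After 10–20 min, agonist at EC80 was added (Lys-Des-Arg9-bradykinin for hB1R, Des-Arg9-bradykinin for rB1R) to give % inhibition. IC50 values came from concentration series.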

[2] = target: T2, B1R receptor of the rat (rB1R) (Rattus norvegicus, UniProt P97583); assay: Functional investigation on the bradykinin receptor 1 (B1R), FLIPR Ca2+ assay, rB1R cells; type: cell-based
T2 construct: expressed in transfected cells; host or cells: CHO K1 cells
T2 sequence (P97583 1-337): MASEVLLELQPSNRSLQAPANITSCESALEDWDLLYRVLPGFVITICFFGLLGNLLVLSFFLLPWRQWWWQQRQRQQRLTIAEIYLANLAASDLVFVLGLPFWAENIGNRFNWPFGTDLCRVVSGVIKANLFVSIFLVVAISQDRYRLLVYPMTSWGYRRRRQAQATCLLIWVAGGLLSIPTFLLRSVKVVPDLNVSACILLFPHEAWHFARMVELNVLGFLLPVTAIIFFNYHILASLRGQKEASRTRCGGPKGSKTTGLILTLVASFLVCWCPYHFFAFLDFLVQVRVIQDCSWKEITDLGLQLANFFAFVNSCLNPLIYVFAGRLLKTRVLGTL
How it was run: as §1

| SMILES | inhibition at 10 µM [1] [%] | inhibition at 10 µM [2] [%] |
| --- | --- | --- |
| COc1cc(C)c(S(=O)(=O)N(C)C(C)c2nc3cccc(C(=O)N4CCC5(CCN(Cc6ccccn6)CC5)CC4)c3[nH]2)c(C)c1 (centres unmarked) [I_CC-26, 4-Methoxy-N,2,6-trimethyl-N-[1-[7-[9-(pyridin-2-yl-methyl)-3,9-diazaspiro[5.5]undecane-3-carbonyl]-1H-benzoimidazol-2-yl]-ethyl]-benzenesulfonic acid amide] | 91 | 89 |
| COc1cc(C)c(S(=O)(=O)N(C)C(C)c2nc3cccc(C(=O)N4CCC5(CCN(Cc6ccncc6)CC5)CC4)c3[nH]2)c(C)c1 (centres unmarked) [I_CC-27, 4-Methoxy-N,2,6-trimethyl-N-[1-[7-[9-(pyridin-4-yl-methyl)-3,9-diazaspiro[5.5]undecane-3-carbonyl]-1H-benzoimidazol-2-yl]-ethyl]-benzenesulfonic acid amide] | 90 | 92 |
| COc1cc(C)c(S(=O)(=O)N(C)C(C)c2nc3cccc(C(=O)N4CCC5(CCN(Cc6cccnc6)CC5)CC4)c3[nH]2)c(C)c1 (centres unmarked) [I_CC-28, 4-Methoxy-N,2,6-trimethyl-N-[1-[7-[9-(pyridin-3-yl-methyl)-3,9-diazaspiro[5.5]undecane-3-carbonyl]-1H-benzoimidazol-2-yl]-ethyl]-benzenesulfonic acid amide] | 96 | 85 |
| COc1cc(C)c(S(=O)(=O)N(C)C(C)c2nc3cccc(C(=O)N4CCC5(CCN(Cc6c(F)cccc6F)CC5)CC4)c3[nH]2)c(C)c1 (centres unmarked) [I_CC-29, N-[1-[7-[9-[(2,6-Difluoro-phenyl)-methyl]-3,9-diazaspiro[5.5]undecane-3-carbonyl]-1H-benzoimidazol-2-yl]-ethyl]-4-methoxy-N,2,6-trimethyl-benzenesulfonic acid amide] | 84 | 94 |
| COc1cc(C)c(S(=O)(=O)N(C)C(C)c2nc3cccc(C(=O)N4CCC5(CCN(Cc6ccc(F)c(F)c6)CC5)CC4)c3[nH]2)c(C)c1 (centres unmarked) [I_CC-30, N-[1-[7-[9-[(3,4-Difluoro-phenyl)-methyl]-3,9-diazaspiro[5.5]undecane-3-carbonyl]-1H-benzoimidazol-2-yl]-ethyl]-4-methoxy-N,2,6-trimethyl-benzenesulfonic acid amide] | 63 | 99 |
| COc1cc(C)c(S(=O)(=O)N(C)C(C)c2nc3cccc(C(=O)N4CCC5(CCN(Cc6cc(F)ccc6F)CC5)CC4)c3[nH]2)c(C)c1 (centres unmarked) [I_CC-31, N-[1-[7-[9-[(2,5-Difluoro-phenyl)-methyl]-3,9-diazaspiro[5.5]undecane-3-carbonyl]-1H-benzoimidazol-2-yl]-ethyl]-4-methoxy-N,2,6-trimethyl-benzenesulfonic acid amide] | 63 | 104 |
| COc1cc(C)c(S(=O)(=O)N(C)C(C)c2nc3cccc(C(=O)N4CCC5(CCN(Cc6ccc(F)cc6F)CC5)CC4)c3[nH]2)c(C)c1 (centres unmarked) [I_CC-32, N-[1-[7-[9-[(2,4-Difluoro-phenyl)-methyl]-3,9-diazaspiro[5.5]undecane-3-carbonyl]-1H-benzoimidazol-2-yl]-ethyl]-4-methoxy-N,2,6-trimethyl-benzenesulfonic acid amide] | 71 | 99 |
| COc1cc(C)c(S(=O)(=O)N(C)C(C)c2nc3cccc(C(=O)N4CCC5(CCN(Cc6ccc(OC)c(F)c6)CC5)CC4)c3[nH]2)c(C)c1 (centres unmarked) [I_CC-33, N-[1-[7-[9-[(3-Fluoro-4-methoxy-phenyl)-methyl]-3,9-diazaspiro[5.5]undecane-3-carbonyl]-1H-benzoimidazol-2-yl]-ethyl]-4-methoxy-N,2,6-trimethyl-benzenesulfonic acid amide] | 80 | 89 |
| COc1cc(C)c(S(=O)(=O)N(C)C(C)c2nc3cccc(C(=O)N4CCC5(CCN(Cc6c(F)cccc6OC)CC5)CC4)c3[nH]2)c(C)c1 (centres unmarked) [I_CC-34, N-[1-[7-[9-[(2-Fluoro-6-methoxy-phenyl)-methyl]-3,9-diazaspiro[5.5]undecane-3-carbonyl]-1H-benzoimidazol-2-yl]-ethyl]-4-methoxy-N,2,6-trimethyl-benzenesulfonic acid amide] | 91 | 86 |
| COc1cc(C)c(S(=O)(=O)N(C)C(C)c2nc3cccc(C(=O)N4CCC5(CCN(Cc6[nH]cnc6C)CC5)CC4)c3[nH]2)c(C)c1 (centres unmarked) [I_CC-35, 4-Methoxy-N,2,6-trimethyl-N-[1-[7-[9-[(5-methyl-3H-imidazol-4-yl)-methyl]-3,9-diazaspiro[5.5]undecane-3-carbonyl]-1H-benzoimidazol-2-yl]-ethyl]-benzenesulfonic acid amide] | 68 | 104 |
| COc1cc(C)c(S(=O)(=O)N(C)C(C)c2nc3cccc(C(=O)N4CCC5(CCN(Cc6cncn6C)CC5)CC4)c3[nH]2)c(C)c1 (centres unmarked) [I_CC-36, 4-Methoxy-N,2,6-trimethyl-N-[1-[7-[9-[(3-methyl-3H-imidazol-4-yl)-methyl]-3,9-diazaspiro[5.5]undecane-3-carbonyl]-1H-benzoimidazol-2-yl]-ethyl]-benzenesulfonic acid amide] | 82 | 100 |
| COc1cc(C)c(S(=O)(=O)N(C)C(C)c2nc3cccc(C(=O)N4CCC5(CCN(Cc6c[nH]c(C)n6)CC5)CC4)c3[nH]2)c(C)c1 (centres unmarked) [I_CC-37, 4-Methoxy-N,2,6-trimethyl-N-[1-[7-[9-[(2-methyl-1H-imidazol-4-yl)-methyl]-3,9-diazaspiro[5.5]undecane-3-carbonyl]-1H-benzoimidazol-2-yl]-ethyl]-benzenesulfonic acid amide] | 80 | 101 |
| COc1cc(C)c(S(=O)(=O)N(C)C(C)c2nc3cccc(C(=O)N4CCC5(CCN(Cc6csnn6)CC5)CC4)c3[nH]2)c(C)c1 (centres unmarked) [I_CC-38, 4-Methoxy-N,2,6-trimethyl-N-[1-[7-[9-([1,2,3]thiadiazol-4-yl-methyl)-3,9-diazaspiro[5.5]undecane-3-carbonyl]-1H-benzoimidazol-2-yl]-ethyl]-benzenesulfonic acid amide] | 85 | 97 |
| COc1cc(C)c(S(=O)(=O)N(C)C(C)c2nc3cccc(C(=O)N4CCC5(CCN(Cc6ccc(F)cc6Cl)CC5)CC4)c3[nH]2)c(C)c1 (centres unmarked) [I_CC-39, N-[1-[7-[9-[(2-Chloro-4-fluoro-phenyl)-methyl]-3,9-diazaspiro[5.5]undecane-3-carbonyl]-1H-benzoimidazol-2-yl]-ethyl]-4-methoxy-N,2,6-trimethyl-benzenesulfonic acid amide] | 49 | 95 |
| COc1cc(C)c(S(=O)(=O)N(C)C(C)c2nc3cccc(C(=O)N4CCC5(CCN(Cc6c(F)cccc6Cl)CC5)CC4)c3[nH]2)c(C)c1 (centres unmarked) [I_CC-40, N-[1-[7-[9-[(2-Chloro-6-fluoro-phenyl)-methyl]-3,9-diazaspiro[5.5]undecane-3-carbonyl]-1H-benzoimidazol-2-yl]-ethyl]-4-methoxy-N,2,6-trimethyl-benzenesulfonic acid amide] | 49 | 99 |
| COc1cc(C)c(S(=O)(=O)N(C)C(C)c2nc3cccc(C(=O)N4CCC5(CCN(Cc6cnn(C)c6C)CC5)CC4)c3[nH]2)c(C)c1 (centres unmarked) [I_CC-41, N-[1-[7-[9-[(1,5-Dimethyl-1H-pyrazol-4-yl)-methyl]-3,9-diazaspiro[5.5]undecane-3-carbonyl]-1H-benzoimidazol-2-yl]-ethyl]-4-methoxy-N,2,6-trimethyl-benzenesulfonic acid amide] | 83 | 98 |
| COc1cc(C)c(S(=O)(=O)N(C)C(C)c2nc3cccc(C(=O)N4CCC5(CCN(Cc6c(C)noc6C)CC5)CC4)c3[nH]2)c(C)c1 (centres unmarked) [I_CC-42, N-[1-[7-[9-[(3,5-Dimethyl-isoxazol-4-yl)-methyl]-3,9-diazaspiro[5.5]undecane-3-carbonyl]-1H-benzoimidazol-2-yl]-ethyl]-4-methoxy-N,2,6-trimethyl-benzenesulfonic acid amide] | 76 | 90 |
| COc1cc(C)c(S(=O)(=O)N(C)C(C)c2nc3cccc(C(=O)N4CCC5(CCN(Cc6ccc(C#N)cc6)CC5)CC4)c3[nH]2)c(C)c1 (centres unmarked) [I_CC-43, N-[1-[7-[9-[(4-Cyano-phenyl)-methyl]-3,9-diazaspiro[5.5]undecane-3-carbonyl]-1H-benzoimidazol-2-yl]-ethyl]-4-methoxy-N,2,6-trimethyl-benzenesulfonic acid amide] | 85 | 98 |
| COc1cc(C)c(S(=O)(=O)N(C)C(C)c2nc3cccc(C(=O)N4CCC5(CCN(Cc6cccc(C#N)c6)CC5)CC4)c3[nH]2)c(C)c1 (centres unmarked) [I_CC-44, N-[1-[7-[9-[(3-Cyano-phenyl)-methyl]-3,9-diazaspiro[5.5]undecane-3-carbonyl]-1H-benzoimidazol-2-yl]-ethyl]-4-methoxy-N,2,6-trimethyl-benzenesulfonic acid amide] | 84 | 101 |
